Experiment: gradient 5% acetonitrile 3 min, to 50% in 2 min, to 85% in 15 min, held 3 min, 100 µL/min
Conditions: column: Zorbax Extend-C18 2.1 x 50 mm; eluents: water / acetonitrile, 0.1% formic acid
How it was run: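 Values are retention times taken from adduct peaks that software picked and an analyst inspected. The pure standards were run as mixtures of ~100 molecules on HPLC linked to a quadrupole time-of-flight mass spectrometer, in positive and negative ionization mode. A Zorbax Extend-C18 column (2.1 × 50 mm, 1.8 μm) was used at 100 μL/min with water and acetonitrile, each including 0.1% formic acid.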

SMILES	RP-LC retention time
O=C(Nc1cccn2cnnc12)c1ccc(C(F)(F)F)cc1	744 s
Fc1ccc(F)c(CN2CCCCC2c2nc(-c3cnccn3)no2)c1 (stereo not drawn)	918 s
CCCSCCCNc1nc(-c2nnc(-c3ccccc3)o2)nc2ccccc12	1100 s
Cc1nc(CNC(=O)[C@H]2CCCN2S(=O)(=O)c2ccc(Br)cc2)cs1	794 s
COc1ccc(OC)c(-c2ccc(=O)n(CC(=O)Nc3ccc(-n4cnnn4)cc3)n2)c1	689 s
Cc1ccc(NC(=O)Cn2c(=O)c3cc(C4CC4)nn3c3ncccc32)c(C)c1	808 s
O=C(NC1CC1)C1CCN(S(=O)(=O)Cc2ccc(Cl)cc2)CC1	735 s
Cc1cc2nn(CC(=O)Nc3ccc4c(c3)OCCO4)c(=O)n2c(-c2ccc(F)cc2)n1	783 s
CC(C)c1cc(C2CCCN2C(=O)c2ccsc2)no1 (stereo not drawn)	828 s
O=C(Nc1cnc(N2CCOCC2)nc1)c1ccc(F)cc1Cl	743 s
CN(Cc1ccccc1)C(=O)C(=O)c1c[nH]c2ccccc12	800 s
CCc1ccccc1NS(=O)(=O)c1cc(-c2[nH]ncc2C(=O)N(C)C)oc1C	729 s
CCSc1nc2ccc(NS(=O)(=O)c3ccccc3)cc2s1	997 s
Cc1cc2c(=O)n(CC(=O)NCc3ccc(Cl)cc3)c3cccnc3n2n1	714 s
Cc1nc(-c2csc(S(=O)(=O)N3CCCC(C(=O)NCc4ccccc4C)C3)c2)no1 (stereo not drawn)	983 s
COc1ccc(-c2nc(N(Cc3ccco3)C3CCCCC3)c3ccccc3n2)cc1	1030 s
COCCC1CCN(C(=O)c2n[nH]c3ccccc23)CC1	709 s
Cc1cc(C)n(-c2nc(C)c(C(=O)Nc3ccccc3F)s2)n1	1120 s
Cc1ccc(-n2c(-c3ccc(Cl)cc3)cn3c4c(=O)n(C)c(=O)n(C)c4nc23)c(C)c1	1110 s
CSc1ccc(CNC(=O)c2ccc3ccnc(N4CCN(C(=O)c5ccco5)CC4)c3c2)cc1	732 s
O=C(Nc1ccc(S(=O)(=O)N2CCCCC2c2cccnc2)cc1)C1CCCCC1 (stereo not drawn)	654 s
Cc1cccc(Cn2c(=O)n(CCNC(=O)C3CCOC3)c3ncccc32)c1 (stereo not drawn)	698 s

SMILES	RP-LC retention time
COc1ccc(C(=O)N2CCCn3nc(-c4cccs4)cc3C2)cn1	766 s
CC(C)c1nc(-n2cccc2)sc1C(=O)Nc1ccccc1F	1270 s
CCn1cc(-c2nc(C(=O)Nc3cccc(C)c3)cs2)c2cccnc21	1130 s
COc1ccc(/C=C2/CCOC2=O)cc1	833 s
O=C(c1ccc2c(c1)OCO2)N1CCCN(C(=O)C2CC2)c2ccccc21	715 s
O=C(NCCOc1ccc(F)cc1)c1cc(-c2cccs2)n(C2CCS(=O)(=O)C2)n1 (stereo not drawn)	793 s
O=C(Cc1nnc(-c2ccccc2)o1)NCc1ccccn1	577 s
CCN1C(=O)COc2ccc(-c3csc(NC(=O)CCc4ccc(C)cc4)n3)cc21	1070 s
CN(C)c1ccc(C(CNS(C)(=O)=O)N2CCc3ccccc3C2)cc1 (stereo not drawn)	573 s
CCOc1cccc(CNC(=O)c2cn(C)nc2S(=O)(=O)N2CCSCC2)c1	889 s
O=C(CN1c2ccc(F)cc2-c2ccccc2S1(=O)=O)N1CCN(Cc2ccccc2)CC1	711 s
Cc1ccccc1CNC1=NCCNC12CCN(S(=O)(=O)c1ccc3c(c1)CCCC3)CC2	851 s
CC(C)(C)C(=O)N1CCN(CC(F)(F)F)CC1	746 s
Cc1ccc2nc(C(=O)NC(C)c3ccc(F)cc3)cn2c1 (stereo not drawn)	670 s
Cc1nn(C)c(C)c1S(=O)(=O)N1CCC(c2noc(-c3ccccc3)n2)C1 (stereo not drawn)	856 s
COc1cc(-c2noc(Cn3ncn4nc(-c5ccc(C)cc5C)cc4c3=O)n2)cc(OC)c1OC	1130 s
CC(C)n1cnc2c(-c3ccccc3)cn(CC(=O)NCc3ccco3)c2c1=O	592 s
CC(=O)N1CCc2cc(N3CC(C(=O)Nc4ccc(F)cc4)CC3=O)ccc21 (stereo not drawn)	699 s
O=C(c1csc(-c2ccc(N3CCCC3)nc2)n1)N1CCN(c2ccccn2)CC1	566 s
CCc1ccc(CN2CCC([C@@H]3CNC[C@H]3CO)CC2)cc1	558 s
Cc1cc(S(=O)(=O)N2CCC(n3cnnc3-c3ccccc3)CC2)ccc1Cl	869 s
Cc1ccc(CNC(=O)N2CCN(c3ncccc3-c3nnc(C4CC4)o3)CC2)cc1	780 s

SMILES	RP-LC retention time
COCc1nc2cccnc2n1C1CCN(C(=O)Nc2ccc3c(c2)OCCO3)CC1	654 s
CC(C)CN1CCn2cc(S(=O)(=O)Nc3ccc(F)c(F)c3)cc2C1=O	842 s
COc1cc(C(=O)N2CCC[C@@H]2C(=O)NCc2csc(-c3ccccc3)n2)cc(OC)c1OC	769 s
COc1ccc(N2CCN(C(=O)c3cn4nc(OC)ccc4n3)CC2)cc1	683 s
CCN1C(=O)c2cccc3c(NC(=O)c4c(F)cccc4F)ccc1c23	739 s
CC(C)c1noc(-c2ccnc(-n3cnc(C(=O)NC4CCCCCC4)c3)c2)n1	771 s
COc1ccc(N2CCN(c3cc(SCC(=O)NCc4ccccc4OC)ncn3)CC2)cc1	888 s
Cc1cc2c(cc1S(=O)(=O)N1CCCC1C(=O)Nc1ccccc1)OC(C)C(=O)N2 (stereo not drawn)	777 s
Cc1nn2c(CNC(=O)c3ccc(F)cc3)c(-c3ccccc3)nc2s1	840 s
O=C([C@@H]1C[C@H](F)CN1C(=O)c1cccc(F)c1)N1CCCCC1	693 s
COc1cc([C@H]2Oc3cc([C@@H]4Oc5cc(O)cc(O)c5C(=O)[C@@H]4O)ccc3O[C@@H]2CO)ccc1O	754 s
CCOc1ccc(N2CCn3c2nnc(C(=O)NCc2ccco2)c3=O)cc1	684 s
COc1ccc(C(=O)N2CCc3ccc(C(=O)Nc4ccc5c(c4)OCCO5)cc32)cc1	868 s
Cc1ccc(NC(=O)N2CCC(n3c(-c4ccoc4)nc4cccnc43)C2)cc1C (stereo not drawn)	762 s
Cc1ccc(-c2nc(C(=O)N3CCN(c4ccccc4)CC3)cs2)n1C	1080 s
Cc1cccc(CNC(=O)Cn2nc(C(=O)N3CCCC3)c3ccccc32)c1	828 s
Cc1ccc(-c2nnc(Cc3nc(-c4cccc(C(F)(F)F)c4)no3)o2)cc1	1160 s
Cc1cc(C(=O)NCCCSC2CCCCC2)n(-c2ccccc2)n1	1030 s
O=C(Nc1cccc(Cl)c1)C(=O)c1cn(CC(=O)N2CCOCC2)c2ccccc12	997 s
Cc1ccc(CNc2nnc(-c3nc(C4CC4)no3)c3ccccc23)cc1	958 s
Cc1[nH]c(C)c(S(=O)(=O)N2CCC(C(=O)NC(C)(C)C)CC2)c1C(=O)N1CCCCC1	710 s
COC(=O)CNC(=O)NCCc1noc(C2CC2)n1	598 s

SMILES	RP-LC retention time
COc1ccc(OC)c(S(=O)(=O)N2CCCC(C(=O)NCCC(C)C)C2)c1 (stereo not drawn)	863 s
O=C(Nc1ccc(F)cc1)N1CCC(CCNC(=O)C2(c3ccccc3)CC2)CC1	897 s
Cc1nnc2ccc(-c3noc(-c4ccc(Cl)cc4)n3)cn12	959 s
COC(=O)c1c(C)[nH]c(C(=O)N2CCCC(C(=O)NCc3ccccc3)C2)c1C (stereo not drawn)	732 s
Cc1sc(-c2cc(C(F)(F)F)[nH]n2)cc1S(=O)(=O)N1CCCCCC1	1110 s
O=C(Nc1nc2ccccc2[nH]1)c1cccc(Cl)c1	703 s
COc1ccc(NC(=O)Cn2c(N3CCOCC3)nc(C)cc2=O)cc1F	644 s
CCCOc1nc2ccccc2nc1N1CCCC(C(=O)Nc2ccccc2OCC)C1 (stereo not drawn)	1280 s
O=C1NCCCn2cc(S(=O)(=O)NC3CCCCCC3)cc21	688 s
CCc1nc(-c2ccc(-c3noc(-c4ccnn4C)n3)cc2)cs1	1220 s
COc1ccc(OC)c(CNC(=O)c2nnc(-c3ccc(S(=O)(=O)N4CCOCC4)cc3)o2)c1	826 s
O=C(NCc1cccc(F)c1)N1C[C@@H]2C[C@H](NS(=O)(=O)c3ccccc3)[C@H]1C2	782 s
O=C(Nc1ncc([N+](=O)[O-])s1)c1ccc([N+](=O)[O-])c(Cl)c1	946 s
CN(C)S(=O)(=O)N1CC(c2noc(-c3cccnc3)n2)C2(CCOCC2)C1 (stereo not drawn)	713 s
CCn1nccc1-c1cccc(-c2noc(-c3ccc(F)c(F)c3)n2)c1	1270 s
O=C(/C=C/c1ccccc1)NC(NC(=S)Nc1cccc2cccnc12)C(Cl)(Cl)Cl (stereo not drawn)	1020 s
O=C(c1ccc2c(c1)OCO2)N1CCC(c2nc(C3CC3)no2)C1 (stereo not drawn)	740 s
O=C(NCc1ccc(F)c(Cl)c1)c1cn(-c2ccc(NC(=O)C3CC3)cn2)cn1	801 s
O=C(c1csc(S(=O)(=O)N2CCC(C(=O)N3CCCCC3)CC2)c1)N1CCOCC1	689 s
O=C(NCc1csc(C2CCCN(C(=O)C3CCCCC3)C2)n1)C1CC1 (stereo not drawn)	748 s
O=C(NCCc1csc(-c2ccccc2)n1)C1CCN(S(=O)(=O)c2ccccc2)CC1	881 s
COc1nc2ccccc2nc1N1CCCC(C(=O)NC2CCCCCC2)C1 (stereo not drawn)	1090 s
